From patent US20070117743A1, “New antitumoral compounds” (priority 2003, published 2007)
Where a SMILES comes first, the peptide text is derived from it. Bridges are numbered along the chain shown (N, C = ends). [ ]: non-standard residue; d: D form. The star is where a group is joined. d(aIle) = CC[C@H](C)[C@@H](N)C(=O)O; d(aThr) = C[C@@H](O)[C@@H](N)C(=O)O; Hexanoyl(5-Me) = CC(C)CCCC(=O)*; Orn = NCCC[C@H](N)C(=O)O; Dhb = C/C=C(\N)C(=O)O

Tests used:
Assay type in all cases: cell-based, human
SK-MEL-28 = assay: SRB colorimetric assay of cell growth and viability, SK-MEL-28; details: MEL-28, 48 hours exposure; for CC50: read-out: LC50 MEL-28
SK-BR-3 = assay: SRB colorimetric assay of cell growth and viability, SK-BR-3; details: SK-BR-3; 48 hours exposure
IGROV-1 = assay: SRB colorimetric assay of cell growth and viability, IGROV-1; details: IGROV; 48 hours exposure
A-549 = assay: SRB colorimetric assay of cell growth and viability, A-549; details: A-549, 48 hours exposure; for GI50: read-out: GI50 A-549; for CC50: read-out: LC50 A-549
IGROV-ET = assay: SRB colorimetric assay of cell growth and viability, IGROV-ET; details: IGROV-ET, 48 hours exposure; for CC50: read-out: LC50 IGROV-ET
HeLa = assay: SRB colorimetric assay of cell growth and viability, HeLa; details: HELA, 48 hours exposure; for CC50: read-out: LC50 HELA
LoVo-Dox = assay: SRB colorimetric assay of cell growth and viability, LoVo-Dox; details: LOVO-DOX, 48 hours exposure; for CC50: read-out: LC50 LOVO-DOX
Procedure, shortened: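 Continuous 48-hour exposure of cells plated at 5×10^3 per well, with compounds diluted in DMSO:EtOH:PBS (0.5:0.5:99) over 10 to 10^−8 μg/mL. Staining with SRB and reading at 490 nm give GI, TGI and LC.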

K-562 = assay: SRB colorimetric assay of cell growth and viability, K-562; details: K-562, 48 hours exposure; for CC50: read-out: LC50 K-562
DU-145 = assay: SRB colorimetric assay of cell growth and viability, DU-145; details: DU-145; 48 hours exposure
HeLa-APL = assay: SRB colorimetric assay of cell growth and viability, HeLa-APL; details: HELA-APL, 48 hours exposure; for CC50: read-out: LC50 HELA-APL
LNCaP = assay: SRB colorimetric assay of cell growth and viability, LNCaP; details: LN-caP, 48 hours exposure; for CC50: read-out: LC50 LN-caP
PANC-1 = assay: SRB colorimetric assay of cell growth and viability, PANC-1; details: PANC-1, 48 hours exposure; for CC50: read-out: LC50 PANC-1
HT-29 = assay: SRB colorimetric assay of cell growth and viability, HT-29; details: HT-29, 48 hours exposure; for GI50: read-out: GI50 HT-29; for CC50: read-out: LC50 HT-29

SMILES	GI50 (SK-MEL-28) [µM]	TGI MEL-28 (SK-MEL-28) [Molar]	CC50 (SK-MEL-28) [µM]	GI50 (SK-BR-3) [µM]	LC50 (SK-BR-3) [µM]	TGI SK-BR-3 (SK-BR-3) [Molar]	GI50 (IGROV-1) [µM]	LC50 (concentration causing 50% net cell killing) (IGROV-1) [µM]	TGI IGROV (IGROV-1) [Molar]	TGI A-549 (A-549) [Molar]	GI50 (A-549) [µM]	CC50 (A-549) [µM]	GI50 (IGROV-ET) [µM]	TGI IGROV-ET (IGROV-ET) [Molar]	CC50 (IGROV-ET) [µM]	GI50 (HeLa) [µM]	TGI HELA (HeLa) [Molar]	CC50 (HeLa) [µM]	GI50 (LoVo-Dox) [µM]	TGI LOVO-DOX (LoVo-Dox) [Molar]	other results
C/C=C1\NC(=O)[C@H](Cc2ccccc2)NC(=O)[C@@H](C(C)C)NC(=O)[C@@H]([C@@H](C)CC)NC(=O)[C@H](NC(=O)[C@H](NC(=O)[C@H](CCCN)NC(=O)[C@H]2CCCN2C(=O)[C@H](NC(=O)[C@@H](NC(=O)[C@H](Cc2ccccc2)NC(=O)[C@H](NC(=O)CCCC(C)C)C(C)C)C(C)C)C(C)C)[C@@H](C)CC)[C@@H](C)OC(=O)[C@H](C(C)C)NC1=O [Compound 114, [Phe^12]-KF] ({Hexanoyl(5-Me)}-[dV]FV[dV][dP][Orn][d(aIle)][d(aThr)][d(aIle)][dV]F[Dhb]V; ester 8-C)	0.17	3.36E−07	0.748	0.207	6.56	4.62E−07	0.114	6.56	3.10E−07	3.50E−07	0.157	1.52	0.301	8.40E−07	6.38	0.259	9.25E−07	5.69	0.18	3.94E−07	CC50 (LoVo-Dox): 4.27 µM; GI50 (K-562): 0.0787 µM; TGI K-562 (K-562): 3.71E−07 Molar; CC50 (K-562): 4.03 µM; GI50 (DU-145): 0.18 µM; LC50 (concentration causing 50% net cell kill) (DU-145): 1.73 µM; TGI DU-145 (DU-145): 3.75E−07 Molar; GI50 (HeLa-APL): 0.143 µM; TGI HELA-APL (HeLa-APL): 3.49E−07 Molar; CC50 (HeLa-APL): 2.03 µM; GI50 (LNCaP): 0.053 µM; TGI LN-caP (LNCaP): 3.00E−07 Molar; CC50 (LNCaP): 4.7 µM; GI50 (PANC-1): 0.233 µM; TGI PANC-1 (PANC-1): 1.16E−06 Molar; CC50 (PANC-1): 6.56 µM; TGI HT-29 (HT-29): 3.22E−07 Molar; GI50 (HT-29): 0.157 µM; CC50 (HT-29): 0.696 µM
C/C=C1\NC(=O)[C@H](Cc2ccccc2)NC(=O)[C@@H](C(C)C)NC(=O)[C@@H]([C@@H](C)CC)NC(=O)[C@H](NC(=O)[C@H](NC(=O)[C@H](CCCN)NC(=O)[C@H]2CCCN2C(=O)[C@H](NC(=O)[C@@H](NC(=O)[C@@H](NC(=O)[C@@H](CCCN)NC(=O)CCCC(C)C)[C@@H](C)O)C(C)C)C(C)C)[C@@H](C)CC)[C@@H](C)OC(=O)[C@H](C(C)C)NC1=O [Compound 118, [D-Orn^13]-KF]	1.49	2.88E−06	5.55	0.851	4.42	1.94E−06	1.45	5.24	2.76E−06	4.21E−06	1.96	6.7	1.85	3.74E−06	6.7	1.57	3.30E−06	6.7	1.59	3.28E−06	CC50 (LoVo-Dox): 6.7 µM; GI50 (K-562): 1.6 µM; TGI K-562 (K-562): 3.92E−06 Molar; CC50 (K-562): 6.7 µM; GI50 (DU-145): 1.86 µM; LC50 (concentration causing 50% net cell kill) (DU-145): 6.7 µM; TGI DU-145 (DU-145): 3.84E−06 Molar; GI50 (HeLa-APL): 1.86 µM; TGI HELA-APL (HeLa-APL): 4.15E−06 Molar; CC50 (HeLa-APL): 6.7 µM; GI50 (LNCaP): 2.87 µM; TGI LN-caP (LNCaP): 6.70E−06 Molar; CC50 (LNCaP): 6.7 µM; GI50 (PANC-1): 2.09 µM; TGI PANC-1 (PANC-1): 4.74E−06 Molar; CC50 (PANC-1): 6.7 µM; TGI HT-29 (HT-29): 2.84E−06 Molar; GI50 (HT-29): 1.2 µM; CC50 (HT-29): 6.7 µM
C/C=C1\NC(=O)[C@H](Cc2ccccc2)NC(=O)[C@@H](C(C)C)NC(=O)[C@@H]([C@@H](C)CC)NC(=O)[C@H](NC(=O)[C@H](NC(=O)[C@H](CCCN)NC(=O)[C@H]2CCCN2C(=O)[C@H](NC(=O)[C@@H](NC(=O)[C@H](CC(C)C)NC(=O)[C@H](NC(=O)CCCC(C)C)C(C)C)C(C)C)C(C)C)[C@@H](C)CC)[C@@H](C)OC(=O)[C@H](C(C)C)NC1=O [Compound 113, [Leu^12]-KF] ({Hexanoyl(5-Me)}-[dV]LV[dV][dP][Orn][d(aIle)][d(aThr)][d(aIle)][dV]F[Dhb]V; ester 8-C)	1.42	2.77E−06	5.37	0.292	6.71	6.13E−07	0.415	6.71	1.70E−06	2.95E−06	1.44	6.04	0.926	2.48E−06	6.62	0.191	4.95E−07	5.79	0.226	6.11E−07	CC50 (LoVo-Dox): 6.71 µM; GI50 (K-562): 1.84 µM; TGI K-562 (K-562): 3.24E−06 Molar; CC50 (K-562): 5.72 µM; GI50 (DU-145): 0.906 µM; LC50 (concentration causing 50% net cell kill) (DU-145): 5.09 µM; TGI DU-145 (DU-145): 2.14E−06 Molar; GI50 (HeLa-APL): 1.19 µM; TGI HELA-APL (HeLa-APL): 2.59E−06 Molar; CC50 (HeLa-APL): 5.66 µM; GI50 (LNCaP): 0.906 µM; TGI LN-caP (LNCaP): 2.20E−06 Molar; CC50 (LNCaP): 5.32 µM; GI50 (PANC-1): 1.82 µM; TGI PANC-1 (PANC-1): 4.89E−06 Molar; CC50 (PANC-1): 6.71 µM; TGI HT-29 (HT-29): 1.76E−06 Molar; GI50 (HT-29): 0.691 µM; CC50 (HT-29): 4.5 µM
C/C=C1\NC(=O)[C@H](Cc2ccccc2)NC(=O)[C@@H](C(C)C)NC(=O)[C@@H]([C@@H](C)CC)NC(=O)[C@H](NC(=O)[C@H](NC(=O)[C@H](CCCN)NC(=O)[C@H]2CCCN2C(=O)[C@H](NC(=O)[C@@H](NC(=O)[C@H](CCC(=O)O)NC(=O)[C@H](NC(=O)CCCC(C)C)C(C)C)C(C)C)C(C)C)[C@@H](C)CC)[C@@H](C)OC(=O)[C@H](C(C)C)NC1=O [Compound 115, [Glu^12]-KF] ({Hexanoyl(5-Me)}-[dV]EV[dV][dP][Orn][d(aIle)][d(aThr)][d(aIle)][dV]F[Dhb]V; ester 8-C)	6.5	6.64E−06	6.64	1.35	6.64	3.01E−06	1.54	6.64	3.59E−06	6.64E−06	4.1	6.64	1.67	3.12E−06	5.83	6.64	6.64E−06	6.64	1.52	3.00E−06	CC50 (LoVo-Dox): 5.92 µM; GI50 (K-562): 6.64 µM; TGI K-562 (K-562): 6.64E−06 Molar; CC50 (K-562): 6.64 µM; GI50 (DU-145): 3.25 µM; LC50 (concentration causing 50% net cell kill) (DU-145): 6.64 µM; TGI DU-145 (DU-145): 6.64E−06 Molar; GI50 (HeLa-APL): 2.99 µM; TGI HELA-APL (HeLa-APL): 6.64E−06 Molar; CC50 (HeLa-APL): 6.64 µM; GI50 (LNCaP): 1.28 µM; TGI LN-caP (LNCaP): 2.54E−06 Molar; CC50 (LNCaP): 5.01 µM; GI50 (PANC-1): 6.64 µM; TGI PANC-1 (PANC-1): 6.64E−06 Molar; CC50 (PANC-1): 6.64 µM; TGI HT-29 (HT-29): 2.60E−06 Molar; GI50 (HT-29): 1.33 µM; CC50 (HT-29): 5.09 µM
